In brackets after ≈: the same amount, converted by molar mass.
System: Aedes aegypti
Assay: Insecticidal in Aedes aegypti fourth instar mosquito larvae after 24 hrs
Assay type: functional

| Compound | LC50 [µg/mL] |
| --- | --- |
| CC(C)[C@@H]1OC(=O)[C@@H](Cc2ccccc2)N(C)C(=O)[C@H](C(C)C)OC(=O)[C@@H](Cc2ccccc2)N(C)C(=O)[C@H](C(C)C)OC(=O)[C@@H](Cc2ccccc2)N(C)C1=O [BEAUVERICIN] | 26 (≈ 33.2 µM) |
| CC[C@H](C)[C@H]1OC(=O)[C@H](Cc2ccccc2)N(C)C(=O)[C@@H](C(C)C)OC(=O)[C@H](Cc2ccccc2)N(C)C(=O)[C@@H](C(C)C)OC(=O)[C@H](Cc2ccccc2)N(C)C1=O [BEAUVERICIN A] | 31 (≈ 38.8 µM) |
